The subject of one test is WT (C57BL/6) mice. In words: Intravital microscopy, laser-induced cremaster arteriolar injury, WT mice. The test is classed as in vivo, mouse. To be noted: iv 5 μg/g BW. Here is the method: Intravital microscopy was performed in a mouse model of laser-induced cremaster arteriolar injury as previously described. WT (C57BL/6), littermate WT control, and CKO and KO male mice (8-10 weeks old) were anesthetized with intraperitoneal injection of ketamine and xylazine. The cremaster muscle was exteriorized and superfused with 37° C. bicarbonate-buffered saline throughout the experiment. Arteriolar wall injury was induced by laser ablation (Photonics Instruments) as previously described. Multiple thrombi were generated in at least 3 to 4 different arterioles of 1 mouse, with new thrombi formed upstream of earlier thrombi to minimize any contribution from thrombi generated earlier in the mouse. Platelets and fibrin were visualized by infusion of DyLight 649-conjugated anti-CD42c (0.2 μg/g body weight [BW]) and Alexa Fluor 488-conjugated anti-fibrin (0.2 μg/g BW) antibodies, respectively. To detect extracellular Ero1α, Alexa Fluor 488-conjugated rabbit IgG or nonblocking anti-ERO1α antibodies (0.3 μg/g BW) were injected into WT (C57BL/6), WT control, Ero1α KO, and Ero1α CKO mice. In some experiments, wtERO1α or activity-null ERO1α-Cys94Ser (mutant ERO1α [mERO1α]; 4 μg/g BW) was infused into Ero1α KO mice before imaging. To test the effect of ERO1α inhibitors or blocking anti-ERO1α antibodies, WT (C57BL/6) mice were treated with intravenous injection of vehicle control, eptifibatide (5 μg/g BW), B12-5 (5 μg/g BW), isotype control IgGs, anti-ERO1α (15E9, 1-3 μg/g BW), or anti-PDI (BD34, 3 μg/g BW) 3 minutes before treatment with the anti-CD42c and anti-fibrin antibodies. The same dose of eptifibatide was injected every 20 minutes to maintain the inhibitory effect. […] Fluorescence and bright-field images were captured in 6 to 10 different cremaster arterioles with a diameter of 30 to 45 μm in each mouse and recorded using either an Olympus BX61W microscope with a 60×1.0 salt water immersion objective or a Zeiss Axio Examiner Z1 microscope system with a Yokogawa confocal spinning disk (CSU-W1) equipped with 4 stack laser system (405-, 488-, 561-, and 637-nm wavelengths). Images were collected with a high-speed, high-resolution camera (2304×2304 pixel format; ORCA-Fusion BT sCMOS, Hamamatsu). Time 0 was set to when image capture began on each vessel. The data were analyzed using Slidebook (version 6.0; Intelligent Imaging Innovations). Due to the significant variation between vessels in the same mouse, the result from each vessel was counted as an individual value. Representative images were chosen that most closely resemble the mean values in the quantifications.

In another test the test system is WT mice. Description: FeCl3-induced carotid arterial thrombosis. The test is classed as in vivo, mouse. The following applies: 5 μg/g BW, vs vehicle control. Here is the method: FIG. […]) is an exemplary embodiment of B12-5 having an antithrombotic effect without prolonging tail bleeding times in mice in accordance with the present disclosure. FIG. […]): Ex vivo effects of B12-5. Wild type (WT; […] One hour later, blood was drawn, followed by isolating platelets. P-selectin exposure (FIG. 19A) and αIIbβ3 integrin activation (FIG. 19B) were assessed in flow cytometry. FIG. 19C: Platelet aggregation was measured after treatment with 0.025 U/mL thrombin. The data represent the mean±SD (n=4). FIG. 19D: The plasma levels of B12-5 were analyzed by liquid chromatography-tandem mass spectrometry (LC-MS/MS) after intravenous injection of the compound (5 μg/g BW) into WT mice and quantified by comparison with a standard curve of B12-5 (mean±SD, n=3). FIG. 19E and FIG. 19F: After laser-induced cremaster arteriolar injury, intravital microscopy was conducted with WT mice pretreated with intravenous injection of saline, eptifibatide (5 μg/g BW), vehicle, or B12-5 (5 μg/g BW). The median integrated fluorescence intensities of anti-CD42c (F platelet) and anti-fibrin (F fibrin) antibodies (n=37-42 arterioles in 6 mice per group). Quantification of the antibody signal at a different time point after laser injury. FIG. 19G: Comparison of B12-5 (5 μg/g BW) with eptifibatide (5 μg/g BW) and their respective controls in inhibiting FeCl3-induced carotid artery thrombosis in WT mice. FIG. 19H and FIG. 19I: WT mice were treated with intravenous injection of vehicle control, eptifibatide (5 μg/g BW), or B12-5 (5 μg/g BW). Thirty minutes later, tail bleeding times and Hb contents were measured after amputation of the tail tip. […] Twenty-three hours later, neurological deficits were assessed by the Bederson score and grip test, and infarct volume was measured as described in Methods. […] Twenty-three hours later, the neurological deficit and infarct volume were measured as described above. […] P values determined by unpaired Student t test (FIG. […]), FIG. 19K, and FIG. 19O) or Mann-Whitney U test (FIG. 19(E-1), FIG. 19L, FIG. 19M, FIG. 19P, and FIG. 19Q). […]

“Also recorded” adds a separate entry of the source. Where a SMILES comes first, the peptide text is derived from it. Bridges are numbered along the chain shown (N, C = ends). [ ]: non-standard residue; d: D form. hArg = N=C(N)NCCCC[C@H](N)C(=O)O; Mpa = O=C(O)CCS

On to `N=C(N)NCCCC[C@@H]1NC(=O)CCSSC[C@@H](C(N)=O)NC(=O)[C@@H]2CCCN2C(=O)[C@H](Cc2c[nH]c3ccccc23)NC(=O)[C@H](CC(=O)O)NC(=O)CNC1=O` [eptifibatide, reference compound] ([Mpa][hArg]GDWPC-NH2; disulfide 1-7), for which, in the test with WT (C57BL/6) mice, the fibrin generation entry is “without reducing; also recorded: without affecting” and the platelet thrombus formation entry is “inhibit”. In addition, in the test on WT mice, the time to occlusion entry is on record as “significantly prolonged”.

These data come from US20240366624A1, “METHODS AND COMPOSITIONS FOR TREATING THROMBOTIC DISEASE” (Washington University, priority 2023, published 2024).
